Paper PMC7914639, “Antioxidant, Pancreatic Lipase Inhibitory, and Tyrosinase Inhibitory Activities of Extracts of the Invasive Plant Spartina anglica (Cord-Grass)” (Antioxidants, 2021)

Columns and labels:
[1] = ABTS radical-scavenging assay; settings: for ABTS Radical Scavenging (%): Table S4; for IC50: read-out: Radical Scavenging Activity Against ABTS IC50
Procedure: ABTS radical-scavenging activity was measured using a modified method of Re et al.. The ABTS stock solution was diluted in water to a concentration of 7.4 mM. The ABTS radical was produced by mixing ABTS stock solution with 2.45 mM potassium persulfate and incubating in dark for 12 h at room temperature. The ABTS solution was diluted with ethanol to obtain an absorbance (Ablank) of 0.70 ± 0.02 at 415 nm. After adding 95 μL of diluted ABTS solution to 5 μL of the sample, the mixture was incubated at room temperature for 15 min in dark. The absorbance (Asample) at 415 nm was measured using a microplate reader (Model Infinite M200 PRO; Tecan, Austria). The blank was prepared using the same procedure with deionized water instead of the sample. The ABTS radical scavenging activity was calculated as a percentage using the Equation (2) ABTS radical scavenging activity (%) = [1 − (Asample/Ablank)] × 100(2)

[2] = DPPH free radical-scavenging activity; settings: for DPPH Radical Scavenging (%): Table S3; for IC50: read-out: Radical-Scavenging Activity Against DPPH IC50
Procedure: DPPH free radical-scavenging properties were evaluated using a previously reported method. Test sample (an extract, a fraction or a compound) in 100 μL of dimethyl sulfoxide (DMSO) (blank: 100 μL of DMSO solution) was added to 100 μL of an ethanolic solution of DPPH (60 μM) in the wells of a 96-well microplate. […] After the sample and the reagents had been mixed gently and incubated for 30 min at room temperature, the absorbance (A) at 540 nm was evaluated using a microplate reader (Model Infinite M200 PRO; Tecan, Austria). The free radical-scavenging activity was calculated as a percentage using the equation DPPH free radical-scavenging activity (%) = [1 − (Asample/Ablank)] × 100.(1)

[3] = target: T1, porcine pancreatic lipase (Sus scrofa, UniProt P00591); assay: Pancreatic lipase inhibition assay (p-NPB hydrolysis); format: biochemical; settings: for inhibition at 10 µg/mL: 10 μg/mL; for inhibition at 25 µg/mL: 25 μg/mL; for inhibition at 50 µg/mL: 50 μg/mL
T1 construct: purchased Sigma-Aldrich (St. Louis, MO, USA) Type II
T1 sequence (P00591 1-450): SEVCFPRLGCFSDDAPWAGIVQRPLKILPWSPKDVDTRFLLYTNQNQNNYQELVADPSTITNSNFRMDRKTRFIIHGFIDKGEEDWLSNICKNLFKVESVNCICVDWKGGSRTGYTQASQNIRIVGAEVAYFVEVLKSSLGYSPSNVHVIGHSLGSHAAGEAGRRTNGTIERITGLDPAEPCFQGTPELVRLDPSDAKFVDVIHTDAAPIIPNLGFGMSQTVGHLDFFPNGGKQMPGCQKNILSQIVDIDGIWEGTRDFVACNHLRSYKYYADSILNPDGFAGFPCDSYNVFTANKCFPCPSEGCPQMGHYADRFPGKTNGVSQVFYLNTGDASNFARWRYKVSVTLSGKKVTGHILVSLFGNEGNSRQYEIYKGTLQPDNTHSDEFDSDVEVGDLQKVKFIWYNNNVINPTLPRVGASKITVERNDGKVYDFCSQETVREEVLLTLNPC
Procedure: Pancreatic lipase activity was measured using the method previously reported by Kim et al.. An enzyme buffer was prepared by the addition of 6 μL of porcine pancreatic lipase solution (Sigma-Aldrich, St. Louis, MO, USA) in a buffer (10 mM morpholinepropanesulfonic acid and 1 mM EDTA, pH 6.8) to Tris buffer (169 μL, 100 mM Tris-HCl, and 5 mM CaCl2, pH 7.0). […] The enzymatic reaction mixtures were incubated at 37 °C for 35 min. Pancreatic lipase activity was determined by measuring the hydrolysis of p-NPB to p-nitrophenol, with absorption being recorded at 405 nm using a microplate reader (Model Infinite M200 PRO; Tecan, Austria). Inhibition of lipase activity was expressed in terms of the percentage reduction in absorbance when porcine pancreatic lipase was incubated with the test compounds, and calculated using the following Equation (4) Inhibition (%) = 100 − [(B − b)/(A − a) × 100](4) where A is the lipase activity without inhibitor, a is the negative control without inhibitor, B is the lipase activity with inhibitor, and b is the negative control with inhibitor. The results are expressed as an average (n = 4).

[4] = target: tyrosinase; set-up: method as in PMID 12720364, doi:10.1021/jf980226+; settings: compound isolated from cumin; cited from earlier work
[5] = target: tyrosinase; set-up: method as in doi:10.1007/s10600-014-1030-9; settings: compound isolated from pollen of Calendula officinalis; cited from earlier work
[6] = test system: tyrosinase; assay: Tyrosinase inhibition assay (L-DOPA oxidation); format: biochemical; settings: at 100 μg/mL
Procedure: The tyrosinase inhibition assay was performed using a modification of the method reported by Nerya et al.. A portion of a sample (20 μL) in DMSO (100 μg/mL) was mixed with 50 μL of 0.1 M potassium phosphate buffer (pH 6.8), to which was added 30 μL of 33 unit/mL tyrosinase and 100 μL of 12 mM L-3,4-dihydroxyphenylalanine (L-DOPA). The solution was mixed gently and the initial absorbance (Ainitial) was recorded at 492 nm using a microplate reader. The reaction mixture was then incubated at 37 °C for 4 min and thereafter the final absorbance (Afinal) was measured at 492 nm. Kojic acid was used as the reference drug. The tyrosinase inhibition activity was calculated as a percentage using the Equation (3) Tyrosinase inhibition activity (%) = [1 − (Afinal/Ainitial)] × 100(3)

[7] = test system: human melanocyte tyrosinase; set-up: method as in PMID 16442796; settings: at 100 μM; cited from earlier work
[8] = test system: microphthalmia-associated transcription factor, tyrosinase, and tyrosinase-related proteins; set-up: method as in PMID 30146944; settings: compound isolated from stem extract of Aurea helianthus; cited from earlier work

Compound | Radical Scavenging Activity Against ABTS IC50 [1] | ABTS Radical Scavenging (%) ([1]; 5 μg/mL) | ABTS Radical Scavenging (%) ([1]; 25 μg/mL) | ABTS Radical Scavenging (%) ([1]; 50 μg/mL) | IC50 [1] | Radical-Scavenging Activity Against DPPH IC50 [2] | DPPH Radical Scavenging (%) ([2]; 1 μg/mL) | DPPH Radical Scavenging (%) ([2]; 2 μg/mL) | DPPH Radical Scavenging (%) ([2]; 5 μg/mL) | DPPH Radical Scavenging (%) ([2]; 10 μg/mL) | DPPH Radical Scavenging (%) ([2]; 25 μg/mL) | DPPH Radical Scavenging (%) ([2]; 50 μg/mL) | DPPH Radical Scavenging (%) ([2]; 100 μg/mL) | DPPH Radical Scavenging (%) ([2]; 250 μg/mL) | IC50 [2] | inhibition at 10 µg/mL ([3]; Table S5) | inhibition at 25 µg/mL ([3]; Table S5) | inhibition at 50 µg/mL ([3]; Table S5) | inhibition at 100 µg/mL ([3]; 100 μg/mL, Table S5) | DPPH Radical Scavenging (%) ([2]; 500 μg/mL) | also measured
O=C1O[C@H]([C@@H](O)CO)C(O)=C1O [L-Ascorbic acid, reference compound] | 3.50 µg/mL | 70.41 ±0.28% | 99.75 ± 0.06% | 99.77 ± 0.08% | 19.9 µM | 1.17 µg/mL | 45.09 ± 1.40% | 87.36 ± 2.24% | 97.41 ± 0.46% | 98.01 ± 0.07% | 97.50 ± 0.53% | 97.28 ± 0.27% | 97.03 ± 0.26% | 98.14 ± 0.15% | 6.64 µM | – | – | – | – | – | Radical-Scavenging Activity Against ABTS (%) ([1]; at 100 μg/mL): 99.5 ± 0.3 ^1%; Radical-Scavenging Activity Against DPPH (%) ([2]; at 100 μg/mL): 98.5 ± 0.2 ^1%
O=Cc1ccc(O)cc1 [Compound 2, p-hydroxybenzaldehyde] | – | 2.03 ± 0.00% | 3.97 ± 0.43% | 8.71 ± 0.21% | – | – | 2.93 ± 2.39% | 2.73 ± 2.15% | 3.58 ± 1.79% | 4.43 ± 0.36% | 3.61 ± 1.11% | 3.78 ± 1.40% | 3.89 ±2.50% | 7.28 ± 0.80% | – | 15.07 ± 0.01% | 36.64 ± 0.02% | 42.68 ± 0.01% | 52.6% | 8.66 ± 0.30% | IC50 [3]: 710 µM; IC50 [4]: 820 µM; type of tyrosinase inhibition [4]: non-competitive
COc1cc(/C=C/C(=O)O[C@@H]2C[C@@](OC(=O)/C=C/c3ccc(O)c(OC)c3)(C(=O)O)C[C@@H](O)[C@@H]2O)ccc1O [Compound 1, 1,3-di-O-trans-feruloyl-(−)-quinic acid] | 16.37 µg/mL | 27.97 ± 4.11% | 66.31 ± 1.84% | 66.38 ± 1.47% | 30.1 µM | 9.53 µg/mL | 11.87 ± 0.82% | 24.91 ± 0.78% | 38.70 ± 2.24% | 51.54 ± 1.30% | 82.94 ± 0.56% | 85.92 ± 1.27% | 89.88 ± 1.25% | 100.78 ± 1.46% | 17.5 µM | 0.73 ± 0.01% | 21.17 ± 0.01% | 37.95 ± 0.02% | 41.11 ± 0.01% | 101.99 ± 0.37% | IC50, activity of tyrosinase against diphenolase [5]: 134.4 ± 4.8 µg/mL; IC50, activity of tyrosinase against monophenolase [5]: 44.6 ± 1.5 µg/mL; IC50 [3]: 242 µM
O=c1cc(CO)occ1O [Kojic acid] | – | – | – | – | – | – | – | – | – | – | – | – | – | – | – | – | – | – | – | – | Inhibition of L-DOPA Oxidation (%) [6]: 98.6 ± 0.4 ^2%
CCCCCCCCCCC[C@@H](C[C@@H]1OC(=O)[C@H]1CCCCCC)OC(=O)[C@H](CC(C)C)NC=O [Orlistat, orlistat, reference compound] | – | – | – | – | – | – | – | – | – | – | – | – | – | – | – | – | – | – | – | – | inhibition at 0.1 µg/mL ([3]; 0.10 μg/mL, Table S5): 22.98 ± 0.01%; inhibition at 0.25 µg/mL ([3]; 0.25 μg/mL, Table S5): 27.63 ± 0.01%; inhibition at 0.5 µg/mL ([3]; 0.50 μg/mL, Table S5): 51.17 ± 0.01%; inhibition at 1 µg/mL ([3]; 1.00 μg/mL, Table S5): 54.53 ± 0.02%; inhibition at 100 µg/mL ([3]; at 100 μg/mL): 67.8%
COc1cc(/C=C/C(=O)NCCc2ccc(O)cc2)ccc1O [Compound 3, N-trans-feruloyltyramine] | 8.19 µg/mL | 44.18 ± 2.64% | 78.71 ± 0.06% | 82.19 ± 1.38% | 26.1 µM | 4.67 µg/mL | 0.86 ± 2.12% | 14.90 ± 1.63% | 54.29 ±0.30% | 63.25 ± 0.83% | 70.53 ± 1.74% | 78.51 ± 0.06% | 93.65 ± 1.70% | 95.51 ± 0.10% | 14.9 µM | 14.76 ± 0.01% | 15.87 ± 0.02% | 16.96 ± 0.02% | 17.28 ± 0.02% | 97.23 ± 0.33% | inhibition of human melanocyte tyrosinase [7]: 49 ± 4%; effect on microphthalmia-associated transcription factor, tyrosinase, and tyrosinase-related proteins [8]: downregulate
